Assay results taken from patent US8697149B2, “Extracts and compounds from “Tulbaghia violacea” and their use as biological plant protecting agents” (Agrarforum AG, priority 2005, dated 2014).
Several values for one entry are separate records, joined by “and”; a condition that tells them apart may be missing. Equal entries are not always repeated.

Key:
Fusarium oxysporum = assay: in vitro mycelial growth inhibition, modified agar dilution method
[1] = system: covered kernel smut (Sporisorium sorghi); assay: field trial, sorghum seed treatment against covered kernel smut; format: in vivo, Sporisorium sorghi on sorghum; settings: sorghum seed inoculated with covered kernel smut spores; extract 2.0 g/l, Thiram 0.25% (w/w); field conditions
[2] = system: loose kernel smut (Sporisorium cruentum); assay: field trial, sorghum seed treatment against loose kernel smut; format: in vivo, Sporisorium cruentum on sorghum; settings: sorghum seed inoculated with loose kernel smut spores; extract 2.0 g/l, Thiram 0.25% (w/w); field conditions
[3] = aerial part compounds after P-TLC separation
[4] = below soil part compounds after P-TLC separation

## CSCSCSC [Compound A6.1, 2,4,6-Trithiaheptane]
Fusarium oxysporum; [3]
  % inhibition (mycelial growth of F. oxysporum): 85%

## CSCSSSCSC [Compound B3.2, 2,4,5,6,8-Pentathianonane]
Fusarium oxysporum; [4]
  % inhibition (mycelial growth of F. oxysporum): 72%

## Methylthiosulphonate [Compound A7.2]
Fusarium oxysporum; [3]
  % inhibition (mycelial growth of F. oxysporum): 50% and 52%

## CN(C)C(=S)SSC(=S)N(C)C [Thiram]
[1]
  Yield: 4.8 ± 0.6a ton ha^−1
[2]
  Yield: 3.9 ± 1.3a ton ha^−1

## CSCSSCSC [Compound B2.2, 2,4,5,7-Tetrathiaoctane]
Fusarium oxysporum; [4]
  % inhibition (mycelial growth of F. oxysporum): 87%

## 2,4-Dithiapentane [Compound A7.1]
Fusarium oxysporum; [3]
  % inhibition (mycelial growth of F. oxysporum): 87%
